# Test results reported in paper PMC3951388, “Structure-Function Relationship of a Plant NCS1 Member – Homology Modeling and Mutagenesis Identified Residues Critical for Substrate Specificity of PLUTO, a Nucleobase Transporter from Arabidopsis” (PLoS ONE, 2014).
# Entries after “also recorded” stand apart in the source; their conditions may differ.
# Tests used:
# [1] = target: T1, PLUTO E227Q T425A (Arabidopsis thaliana, UniProt Q9LZD0, E227Q/T425A); test: Radiolabelled nucleobase uptake, PLUTO mutant in E. coli lacking uraA; assay type: cell-based; conditions: 20 μM, 5 min
# T1 construct: Heterologous expression of the full length PLUTO Arabidopsis gene in Escherichia coli uraA insertion mutants; expressed in transfected cells; host or cells: Escherichia coli JD23420 (uraA transposon insertion strain), vector pTAC-MAT-Tag-2
# T1 sequence (Q9LZD0 whole entry E227Q/T425A): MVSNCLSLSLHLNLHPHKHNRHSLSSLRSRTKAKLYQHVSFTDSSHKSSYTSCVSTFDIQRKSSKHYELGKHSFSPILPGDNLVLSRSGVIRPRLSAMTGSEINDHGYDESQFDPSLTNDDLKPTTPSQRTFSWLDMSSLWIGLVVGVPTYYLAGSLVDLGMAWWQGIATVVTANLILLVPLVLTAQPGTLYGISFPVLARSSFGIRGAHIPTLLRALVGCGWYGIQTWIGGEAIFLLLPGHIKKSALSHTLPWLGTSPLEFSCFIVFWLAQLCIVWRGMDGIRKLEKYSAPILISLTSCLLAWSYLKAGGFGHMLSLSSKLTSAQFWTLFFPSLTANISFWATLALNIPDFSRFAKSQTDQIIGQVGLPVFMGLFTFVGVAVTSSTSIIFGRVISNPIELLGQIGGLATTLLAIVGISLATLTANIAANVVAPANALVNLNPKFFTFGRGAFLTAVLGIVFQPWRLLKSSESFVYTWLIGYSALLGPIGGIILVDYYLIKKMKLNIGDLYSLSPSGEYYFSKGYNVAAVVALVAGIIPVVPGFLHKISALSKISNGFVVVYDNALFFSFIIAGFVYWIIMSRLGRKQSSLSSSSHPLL
# Description: (§1) For the uptake experiments, PLUTO was heterologously expressed in an Escherichia coli transposon insertion strain lacking the endogenous uracil permease uraA (JD23420), obtained from the National Institute of Genetics (Shizuoka, Japan; http://www.shigen.nig.ac.jp/ecoli/strain/top/top.jsp). PLUTO and site directed mutants were cloned in the bacterial expression vector pTAC-MAT-Tag-2 (Sigma Aldrich, Deisenhofen, Germany) as previously described. After the transformation of the cells with the PLUTO expression plasmids, the cells were grown at 37°C and 170 rpm in YT medium containing ampicillin and kanamycin. The expression of PLUTO and site directed mutants was initiated by the addition of isopropyl β-D-thiogalactopyranosid (IPTG) with a final concentration of 0.02% at an OD600 of 0.5. The cells were grown for 2 h after induction, collected by centrifugation for 5 min at 4500 g and 4°C and resuspended with potassium phosphate buffer (50 mM, pH 7.0) to an OD600 of 5. The cells were stored on ice until use.
# (§2) Site directed mutagenesis was achieved by using the QuickChange II-E Site directed mutagenesis kit (Stratagene) according to the manufacturer's instructions.
# (§3) The uptake of nucleobases with concentrations of 20 μM was performed at 37°C and permanent shaking at 200 rpm. For the analysis of PLUTO mutants the cells were incubated for 5 min (2 min for competition studies) and the uptake was terminated by vacuum filtration through a membrane filter (0.45 μm pore size; Whatman). The cells were washed three times with 1 ml ice cold potassium phosphate buffer (50 mM, pH 7.0) to remove unimported nucleobases and the radioactivity was quantified in a Packard Tricarb 2500 scintillation counter after the addition of 4 mL scintillation cocktail (Roth). For the competition studies, all competitors were added with ten-fold excess (200 μM) to the uptake medium containing 20 μM radiolabelled nucleobases.
# [2] = target: T2, PLUTO E227Q G147Q (Arabidopsis thaliana, UniProt Q9LZD0, E227Q/G147Q); test: as above; assay type: cell-based; conditions: 20 μM, 5 min
# T2 construct: Heterologous expression of the full length PLUTO Arabidopsis gene in Escherichia coli uraA insertion mutants; expressed in transfected cells; host or cells: Escherichia coli JD23420 (uraA transposon insertion strain), vector pTAC-MAT-Tag-2
# T2 sequence (Q9LZD0 whole entry G147Q/E227Q): as the sequence (Q9LZD0 whole entry E227Q/T425A) above, with G147Q, A425T counted along it
# Description: as §1, §2, §3
# [3] = target: T3, PLUTO E227K (Arabidopsis thaliana, UniProt Q9LZD0, E227K); test: as above; assay type: cell-based; conditions: 20 μM, 5 min
# T3 construct: Heterologous expression of the full length PLUTO Arabidopsis gene in Escherichia coli uraA insertion mutants; expressed in transfected cells; host or cells: Escherichia coli JD23420 (uraA transposon insertion strain), vector pTAC-MAT-Tag-2
# T3 sequence (Q9LZD0 whole entry E227K): as the sequence (Q9LZD0 whole entry E227Q/T425A) above, with Q227K, A425T counted along it
# Description: as §1, §2, §3
# [4] = target: T4, PLUTO (Arabidopsis thaliana, UniProt Q9LZD0); assay type: cell-based; conditions: wild type PLUTO, 200 μM competitor; for Effect of competitor on uracil transport: 20 μM [14C]-uracil; for Effect of competitor on uracil transport / Effect of competitor on guanine transport / Effect of competitor on adenine transport: 2 min; for Effect of competitor on guanine transport: 20 μM radiolabelled guanine; for Effect of competitor on adenine transport: 20 μM radiolabelled adenine
# T4 construct: Heterologous expression of the full length PLUTO Arabidopsis gene in Escherichia coli uraA insertion mutants; expressed in transfected cells; host or cells: Escherichia coli JD23420 (uraA transposon insertion strain), vector pTAC-MAT-Tag-2
# T4 sequence (Q9LZD0 1-599): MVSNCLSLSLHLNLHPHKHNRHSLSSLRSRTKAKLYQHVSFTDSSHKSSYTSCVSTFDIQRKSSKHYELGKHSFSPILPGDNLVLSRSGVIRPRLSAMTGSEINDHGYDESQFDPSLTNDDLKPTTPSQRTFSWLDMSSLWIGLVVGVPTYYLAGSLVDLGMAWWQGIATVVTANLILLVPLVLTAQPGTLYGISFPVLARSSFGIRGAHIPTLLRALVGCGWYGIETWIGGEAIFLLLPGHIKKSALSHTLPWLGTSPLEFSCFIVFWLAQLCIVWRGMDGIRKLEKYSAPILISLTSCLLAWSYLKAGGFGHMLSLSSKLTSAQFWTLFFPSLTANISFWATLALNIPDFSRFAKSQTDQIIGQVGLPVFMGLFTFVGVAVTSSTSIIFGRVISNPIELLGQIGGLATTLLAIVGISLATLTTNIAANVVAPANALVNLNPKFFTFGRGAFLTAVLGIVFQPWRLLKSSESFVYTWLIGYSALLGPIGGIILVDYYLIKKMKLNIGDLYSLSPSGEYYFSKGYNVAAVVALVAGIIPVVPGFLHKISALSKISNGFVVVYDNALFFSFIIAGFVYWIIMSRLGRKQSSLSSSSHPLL
# Description: as §1, §3
# [5] = target: T4, PLUTO; conditions: full length PLUTO in E. coli uraA insertion mutants; ref [4]; cited from earlier work
# [6] = target: PLUTO E227Q (Arabidopsis thaliana, UniProt Q9LZD0, E227Q); test: Radiolabelled nucleobase uptake, PLUTO mutant in E. coli lacking uraA; conditions: 20 μM, 5 min
# Sequence of PLUTO E227Q (Q9LZD0 whole entry E227Q): as the sequence (Q9LZD0 whole entry E227Q/T425A) above, with A425T counted along it
# Description: as §1, §2, §3
# [7] = target: PLUTO E227A (Arabidopsis thaliana, UniProt Q9LZD0, E227A); test: as above; conditions: 20 μM, 5 min
# Sequence of PLUTO E227A (Q9LZD0 whole entry E227A): as the sequence (Q9LZD0 whole entry E227Q/T425A) above, with Q227A, A425T counted along it
# Description: as §1, §2, §3
# [8] = target: PLUTO E227D (Arabidopsis thaliana, UniProt Q9LZD0, E227D); conditions: mutant E227D; 20 μM; 5 min
# Sequence of PLUTO E227D (Q9LZD0 whole entry E227D): as the sequence (Q9LZD0 whole entry E227Q/T425A) above, with Q227D, A425T counted along it
# Description: as §1, §2, §3
# [9] = target: PLUTO G147Q (Arabidopsis thaliana, UniProt Q9LZD0, G147Q); conditions: mutant G147Q; 20 μM; 5 min
# Sequence of PLUTO G147Q (Q9LZD0 whole entry G147Q): as the sequence (Q9LZD0 whole entry E227Q/T425A) above, with G147Q, Q227E, A425T counted along it
# Description: as §1, §2, §3
# [10] = target: T5, PLUTO W223A (Arabidopsis thaliana, UniProt Q9LZD0, W223A); assay type: cell-based; conditions: mutant W223A, 200 μM competitor; for Effect of competitor on uracil transport: 20 μM uracil; for Effect of competitor on guanine transport: 20 μM guanine
# T5 construct: Heterologous expression of the full length PLUTO Arabidopsis gene in Escherichia coli uraA insertion mutants; expressed in transfected cells; host or cells: Escherichia coli JD23420 (uraA transposon insertion strain), vector pTAC-MAT-Tag-2
# T5 sequence (Q9LZD0 whole entry W223A): as the sequence (Q9LZD0 whole entry E227Q/T425A) above, with W223A, Q227E, A425T counted along it
# Description: as §1, §2, §3
# [11] = target: T4, PLUTO; test: Radiolabelled nucleobase uptake, wild type PLUTO expressed in E. coli lacking uraA; assay type: cell-based; conditions: for Net import: wild type PLUTO (control), 5 min, corrected for uninduced cells
# Description: The cells were stored on ice until use.
# [12] = target: PLUTO V145A G147Q (Arabidopsis thaliana, UniProt Q9LZD0, G147Q/V145A); test: Radiolabelled nucleobase uptake, PLUTO mutant in E. coli lacking uraA; conditions: 20 μM, 5 min
# Sequence of PLUTO V145A G147Q (Q9LZD0 whole entry V145A/G147Q): as the sequence (Q9LZD0 whole entry E227Q/T425A) above, with V145A, G147Q, Q227E, A425T counted along it
# Description: as §1, §2, §3
# [13] = target: PLUTO I226A (Arabidopsis thaliana, UniProt Q9LZD0, I226A); conditions: mutant I226A; 20 μM guanine, 200 μM competitor
# Sequence of PLUTO I226A (Q9LZD0 whole entry I226A): as the sequence (Q9LZD0 whole entry E227Q/T425A) above, with I226A, Q227E, A425T counted along it
# Description: as §1, §2, §3
# [14] = target: PLUTO F341A (Arabidopsis thaliana, UniProt Q9LZD0, F341A); conditions: mutant F341A; 20 μM guanine, 200 μM competitor
# Sequence of PLUTO F341A (Q9LZD0 whole entry F341A): as the sequence (Q9LZD0 whole entry E227Q/T425A) above, with Q227E, F341A, A425T counted along it
# Description: as §1, §2, §3
# [15] = system: Nc1ncnc2nc[nH]c12; test: cells, lysate or membranes; conditions: corrected for uptake into uninduced cells, pH 7.0
# [16] = system: O=c1cc[nH]c(=O)[nH]1; test: cells, lysate or membranes; conditions: corrected for uptake into uninduced cells, pH 7.0
# [17] = system: Nc1nc2nc[nH]c2c(=O)[nH]1; test: cells, lysate or membranes; conditions: pH 7.0; 37.0 °C
molecule,measurement,setting,value
Nc1ncnc2[nH]cnc12 [adenine],Residual transport compared to controls,[1],32%
same,Residual transport compared to controls,[2],≤ 16%
same,Residual transport compared to controls,[3],7%
same,Effect of competitor on uracil transport,[4],remained unaffected
same,Effect of competitor on guanine transport,[4],marked inhibitory effects
same,Apparent affinity,[5],0.4 µM
same,Increase of transport versus control,[6],21%
same,Residual transport compared to controls,[7],26%
same,Transport,[8],2.1 nmol mg^−1 protein
same,Transport rate relative to controls,[8],64%
same,Impairment of transport versus control,[9],45%
O=C1NC(=O)C(Cc2ccccc2)N1 (stereo not shown) [benzyl hydantoin],Transport by PLUTO judged by competitive binding analysis,[4],no indication for a transport
O=C1CCNC(=O)N1 [dihydrouracil],Effect of competitor on uracil transport,[10],inhibited
Nc1nc2nc[nH]c2c(=O)[nH]1 [guanine],Net import,[11]; 20 μM,3.4 nmol mg^−1 protein
same,Residual transport compared to controls,[1],25%
same,Residual transport compared to controls,[2],≤ 16%
same,Residual transport compared to controls,[3],11%
same,Effect of competitor on uracil transport,[4],reduced
same,Effect of competitor on adenine transport,[4],not influenced
same,Apparent affinity,[5],6.3 µM
same,Residual transport compared to controls,[6],21%
same,Residual transport relative to controls,[12],12%
same,Residual transport compared to controls,[7],4%
same,Transport,[8],0.86 nmol mg^−1 protein
same,Transport activity (in words),[9],not significantly altered
O=c1[nH]cnc2nc[nH]c12 [hypoxanthine],Effect of competitor on guanine transport,[10],no longer able to inhibit
same,Effect of competitor on guanine transport,[4],affected; also recorded: marked inhibition
same,Effect of competitor on guanine transport,[13],inhibited
same,Effect of competitor on guanine transport,[14],inhibited
O=C(O)c1cc(=O)[nH]c(=O)[nH]1 [orotate],Transport substrate status in direct uptake studies,[11]; wild type PLUTO,not identified as transport substrates
same,Effect of competitor on uracil transport,[4],affected
Cc1ncc(C[n+]2csc(CCO)c2C)c(N)n1 [thiamine],Effect of competitor on uracil transport,[10],inhibited
Cc1c[nH]c(=O)[nH]c1=O [thymine],Transport substrate status in direct uptake studies,[11]; wild type PLUTO,not identified as transport substrates
same,Effect of competitor on uracil transport,[10],inhibited
same,Effect of competitor on uracil transport,[4],affected
O=c1cc[nH]c(=O)[nH]1 [uracil],Net import,[11]; 20 μM,3.2 nmol mg^−1 protein
same,Import into induced E. coli cells,"[11]; wild type PLUTO, 20 μM, 5 min incubation, not corrected for uninduced cells",3.7±0.28 nmol mg^−1 protein
same,Residual transport compared to controls,[2],≤ 16%
same,Transport activity (in words),[3],completely extinguished
same,Effect of competitor on adenine transport,[4],not influenced
same,Effect of competitor on guanine transport,[4],marked inhibitory effects
same,Apparent affinity,[5],16.4 µM
same,Transport activity (in words),[6],completely extinguished
same,Increase of transport versus control,[12],50%
same,Transport activity (in words),[7],completely extinguished
same,Transport,[8],0.53 nmol mg^−1 protein
same,Transport activity (in words),[9],not significantly altered
O=c1[nH]c(=O)c2[nH]c(=O)[nH]c2[nH]1 [uric acid],Effect of competitor on guanine transport,[10],no longer able to inhibit
same,Effect of competitor on guanine transport,[4],affected
PLUTO E227A (Arabidopsis thaliana; E227A),Km,[15]; other: mutant E227A,0.21 (±0.05) μM
PLUTO E227D (Arabidopsis thaliana; E227D),Km,[16]; other: mutant E227D,5.18 (±1.21) μM
same,Km,[15]; other: mutant E227D,0.97 (±0.21) μM
same,Km,[17],3.70 (±0.72) μM
PLUTO E227Q (Arabidopsis thaliana; E227Q),Km,[15]; other: mutant E227Q,0.22 (±0.05) μM
PLUTO G147Q (Arabidopsis thaliana; G147Q),Km,[16]; other: mutant G147Q,"36.07 (±2,32) μM"
same,Km,[15]; other: mutant G147Q,0.68 (±0.20) μM
PLUTO V145A G147Q (Arabidopsis thaliana; G147Q/V145A),Km,[16]; other: mutant V145A G147Q,20.15 (±3.73) μM
same,Km,[15]; other: mutant V145A G147Q,0.81 (±0.17) μM
